Results: PMC12461627, “Locking CBL TKBD in its native conformation presents a novel therapeutic opportunity in mutant CBL-dependent leukemia” (Molecular Therapy, 2025)
Like-named read-outs stand apart in the source and are kept apart here. Square brackets hold non-standard residues; d marks the D form. Ends that are not written are not given here. pY = N[C@@H](Cc1ccc(OP(=O)(O)O)cc1)C(=O)O

Experiments:
[1] = tested on: MOLM-13Luc/CBLock cells in NSG mice
[2] = Solubility as noted by the authors; assay type: physicochemical; details: qualitative, aqueous solution
CBL mutant 70Z = assay: GFP-trap co-immunoprecipitation with Myc-tagged CBL-70Z in HEK293 cells; assay type: cell-based; details: expressed as GFP-CBLock variants in HEK293 cells
Description: The cells were pelleted and lysed in IP lysis buffer (50 mM Tris-HCl pH 7.5, 150 mM NaCl, 1 mM EDTA, 1% IGEPAL CA-630, 10% glycerol, 0.5 mM DTT, and cOmplete protease inhibitor cocktail) to prepare the whole cell lysates. Immunoprecipitation and immunoblotting were performed using the lysates as described before.[28] For each regular immunoprecipitation reaction, 1 mg freshly prepared whole cell lysate was incubated with primary antibodies at 4 °C for 4 h on a rotatory shaker. […] Alternatively for each reaction, 1 mg freshly prepared whole cell lysate was incubated overnight with antibody- or immunoglobulin (Ig)G-conjugated agarose beads. The next day beads were washed three times with IP lysis buffer and once with PBS. […] This was followed by similar washing steps as mentioned before. The beads were then either processed for mass spectrometry or immunoprecipitated proteins were eluted at 95 °C in 40 μL 2X loading dye. A previous method was used to perform immunoblotting[51] and the immunoblots were scanned using an Odyssey CLx Imaging System (LI-COR Biosciences).

[3] = tested on: CBL (47–435) R139C/D435C variant (diCys); assay: Disulfide bond formation assay; assay type: biochemical; details: CBL 47–435 diCys, SDS-PAGE, n = 3
Description: CBL variant mixtures were prepared at room temperature as described previously,[7] keeping aside a sample portion for zero-time point. Removal of DTT using a Zeba spin desalting column (Thermo Scientific) initiated the reactions. At indicated time points, samples were removed and quenched with 20 mM N-ethylmaleimide (NEM; Sigma) for 10 min and mixed with 4X SDS loading buffer. DTT (100 mM) was added to prepare the reduced samples. The samples were resolved by SDS-PAGE and the gels stained with Coomassie blue were scanned. The disulfide-bonded (D) and unmodified species (U) were quantified using the Image Studio software. Three independent experiments were performed, and curves for the disulfide bond fractions from each reaction were generated using GraphPad Prism.

CC[C@H](C)[C@H](NC(=O)[C@H](Cc1c[nH]c2ccccc12)NC(=O)[C@H](CO)NC(=O)[C@H](CC(=O)O)NC(=O)[C@H](CCSC)NC(=O)[C@H](CCC(=O)O)NC(=O)[C@H](CCC(=O)O)NC(=O)[C@@H](NC(=O)[C@@H](NC(=O)[C@@H](N)CCSC)[C@@H](C)O)C(C)C)C(=O)N[C@@H](CCCCN)C(=O)N[C@@H](CO)C(=O)N[C@@H](Cc1c[nH]c2ccccc12)C(=O)N[C@@H](CC(=O)O)C(=O)N[C@@H](CCC(N)=O)C(=O)N[C@@H](CCCNC(=N)N)C(=O)O [CBLock]
Body weight ([1]; cohort two): no marked changes in body weights | Body weight ([1]; first experiment, dox vs vehicle): no obvious difference in body weight | Solubility [2]: enhanced solubility in aqueous solution

CBLock-DM: CBLock mutant D7A/I10A expressed as GFP or iRFP fusion (MTVEEMASWAKSWDQR; also: fused to GFP or iRFP)
Binding to CBL mutant 70Z (CBL mutant 70Z): failed to bind the CBL mutant 70Z

STVSFNP[pY]EPTGGPWG [pSYK, phosphotyrosine substrate peptide from SYK]
Effect on diCys disulfide bond formation [3]: prevented formation of the diCys disulfide bond

TLNSDG(p)YTPEPA [pZAP70, phosphotyrosine substrate peptide from ZAP70]
Effect on diCys disulfide bond formation [3]: prevented formation of the diCys disulfide bond

IKDWQDRSVWESMTME [CBLock-Sc2]
Binding to CBL mutant 70Z (CBL mutant 70Z): failed to bind the CBL mutant 70Z

SMEKTDQWRMVEIDSW [CBLock-Sc1]
Binding to CBL mutant 70Z (CBL mutant 70Z): failed to bind the CBL mutant 70Z
